Source: US5338733A, “Isoxazolidinyl carbapenem derivative” (Shionogi Seiyaku Kabushiki Kaisha, priority 1992, dated 1994)
≈ marks a conversion by molar mass, not a printed value. Structures can show the parent of a compound that is named as a salt. Where two headings read alike, the source gives them in different places.

How the values were obtained:
[1] = tested on: Staphylococcus aureus 209P; experiment: MIC, Staphylococcus aureus 209P; format: cell-based; conditions: read-out: MIC (Minimal Inhibitory Concentration)
Procedure: (§1) The carbapenem compounds obtained in Examples 3, 5 and 8 were evaluated for antimicrobial activity, the integrated value of a concentration in blood (Area Under the Curve: AUC), recovery from urine and decomposition by human kidney dehydropeptidase-1 by using imipenem, meropenem and cephalosporin derivatives (A) and (B) as controls.
(§2) 1) MIC (Minimal Inhibitory Concentration) (γ/ml):
(§3) Antimicrobial activity was evaluated by using MIC.

[2] = tested on: Entercoccus SR1004; experiment: MIC, Entercoccus SR1004; format: cell-based; conditions: read-out: MIC (Minimal Inhibitory Concentration)
Procedure: as §1, §2, §3

[3] = tested on: Pseudomonas aeruginosa SR1012; experiment: MIC, Pseudomonas aeruginosa SR1012; format: cell-based
Procedure: as §1, §2, §3

[4] = in vivo; conditions: mouse, iv
Procedure: as §1
2) Concentration in Blood (γ/ml):
Each compound was intravenously injected into a mouse, and the concentration in the blood 15 minutes after the injection was measured.
3) Recovery from Urine (%):
Each compound was intravenously injected into a mouse and a monkey, and the content in the urine 24 hours after the injection was measured. A rate of recovery was obtained from the content.

[5] = in vivo; conditions: monkey, iv
[6] = in vitro; format: in vitro ADME, human; conditions: human, kidney dehydropeptidase-1
Procedure: as §1

[7] = tested on: human kidney dehydropeptidase-1; experiment: in vitro; format: in vitro ADME
Procedure: as §1

[8] = tested on: Gram-positive bacteria and Gram-negative bacteria; experiment: Antimicrobial activity against Gram-positive and Gram-negative bacteria (overall); format: cell-based; conditions: as compared with imipenem, meropenem and cephalosporin derivatives (A) and (B); in words
Procedure: as §1, §2, §3

[9] = Pseudomonas aeruginosa SR1012, read-out: MIC (Minimal Inhibitory Concentration)

SMILES	MIC ([1]; Staphylococcus aureus 209P) [µg/mL]	MIC ([2]; Entercoccus SR1004) [µg/mL]	MIC [3, 9] [µg/mL]	AUC [4] [ng·h/mL]	concentration at 0.25 h [4] [ng/mL]	AUC [5] [ng·h/mL]	metabolised [6] [%]	MIC ([1]; Staphylococcus aureus, 209P) [µg/mL]	MIC [2] [µg/mL]	MIC ([3]; Pseudomonas aeruginosa, SR1012, read-out: MIC (Minimal Inhibitory Concentration)) [µg/mL]	hydrolysis rate in the body [7]	antimicrobial activity against Gram-positive bacteria and Gram-negative bacteria [8]
C[C@@H](O)[C@H]1C(=O)N2C(C(=O)O)=C(S[C@@H]3CN[C@H](C(=O)N(C)C)C3)[C@H](C)[C@H]12 [Meropenen, meropenem]	0.1 (≈ 0.261 µM)	6.25 (≈ 16.3 µM)	0.78 (≈ 2.03 µM)	5200	13700	17200	87					
C[C@@H](O)[C@H]1C(=O)N2C(C(=O)O)=C(SCCN=CN)C[C@H]12 [Imipenen, imipenem]				8800	20600	13300	73	0.0125 (≈ 0.0418 µM)	1.56 (≈ 5.21 µM)	1.56 (≈ 5.21 µM)		
C[C@H]1C([C@@H]2CC[N+](C)(C)O2)=C(C(=O)[O-])N2C(=O)[C@H]([C@@H](C)O)C12 (stereo partly drawn) [Example 5, (1S,6S)-6-((R)-1-hydroxyethyl)-2-((5S)-2,2-dimethylisoxazolidinio-5-yl)-1-methyl-1-carba-2-penem-3-carboxylate]	0.0125 (≈ 0.0403 µM)	0.78 (≈ 2.51 µM)	1.56 (≈ 5.03 µM)								low hydrolysis rate	excellent antimicrobial activity
C[C@H]1C([C@@H]2CCN(C)O2)=C(C(=O)O)N2C(=O)[C@H]([C@@H](C)O)C12 (stereo partly drawn) [Example 8, sodium (1S,6S)-6-((R)-l-hydroxyethyl)-1-methyl-2-((5S)-2-methylisoxazolidine-5-yl)-1-carba-2-penem-3-carboxylate salt]	0.1										low hydrolysis rate	excellent antimicrobial activity
C[N+]1(C)CCC(C2=C(C(=O)[O-])N3C(=O)C(NC(=O)C(=NO)c4csc(N)n4)C3SC2)O1 (stereo not drawn) [Cephalosporin (B)]	0.2 (≈ 0.427 µM)											
C[C@H]1C([C@H]2CC[N+](C)(C)O2)=C(C(=O)[O-])N2C(=O)[C@H]([C@@H](C)O)C12 (stereo partly drawn) [Example 3, (1S,6S)-6-((R)-1-hydroxyethyl)-2-((5R)-2,2-dimethylisoxazolidinio-5-yl)-1-methyl-1-carba-2-penem-3-carboxylate]	0.0125 (≈ 0.0403 µM)	0.78 (≈ 2.51 µM)	0.78 (≈ 2.51 µM)	19000	36300	35200	97				low hydrolysis rate	excellent antimicrobial activity
CN1CCC(C2=C(C(=O)O)N3C(=O)C(NC(=O)C(=NO)c4csc(N)n4)C3SC2)O1 (stereo not drawn) [Cephalosporin (A)]	0.78 (≈ 1.72 µM)											
